Data from patent US20230091047A1 (priority 2019, published 2023).

How the values were obtained:
in vitro = format: cell-based; settings: human, HepG2 or HepG2.117 cells, ATPlite, 3-days incubation (not marked with *), mean value
Procedure, shortened: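 Luminescent ATP quantitation served as the viability endpoint following a 3- or 4-day incubation with test compounds.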

[1] = test system: HBV (HepG2.117 cell line, inducibly HBV producing); assay: Anti-HBV activity: intracellular HBV DNA by real-time PCR in HepG2.117 cells after 3 days of treatment; format: cell-based, hepatitis B virus; settings: Hepatitis B virus, HepG2.117, 72 h, HepG2.117 cells, intracellular HBV DNA by real-time PCR, 3 days of treatment, mean value; read-out: EC50 (μM, mean value)
Procedure, shortened: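 First, HBV replication is induced in HepG2.117 cells by doxycycline absence. Next, serially diluted compound is added for 3 days. Finally, intracellular HBV DNA is quantified by HBV-specific real-time PCR.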

For `CC(C)NC(=O)c1cnc(-n2c(NC(C)C)nc3c(c2=O)C[C@@H](C)N(C(=O)c2ccc(Cl)c(Cl)c2)C3)nc1` [Compound C382], the CC50 at 3 days (in vitro) was over 50 µM and the EC50 [1] was 0.05 µM.

Work on `CC(C)Nc1nc2c(c(=O)[nH]1)C[C@@H](C)N(C(=O)c1ccc(Cl)c(Cl)c1)C2` [Compound C384] yielded a CC50 at 3 days (in vitro) of over 50 µM and an EC50 [1] of 0.75 µM.

With `CC(C)Nc1nc2c(c(=O)n1-c1ccc(S(C)(=O)=O)c(C(F)F)c1)C[C@@H](C)N(C(=O)c1ccc(Cl)c(Cl)c1)C2` [Compound C385] the CC50 at 3 days (in vitro) was over 50 µM and the EC50 [1] was 0.86 µM.

For `CC(C)Nc1nc2c(c(=O)n1-c1ccc(S(=O)(=O)NC(C)C)cc1)C[C@@H](C)N(C(=O)c1ccc(Cl)c(Cl)c1)C2` [Compound C388], the CC50 at 3 days (in vitro) was over 50 µM and the EC50 [1] was 0.62 µM.

For `CNC(=O)c1ccc(-n2c(Nc3ccnn3C)nc3c(c2=O)C[C@@H](C)N(C(=O)c2ccc(Cl)c(Cl)c2)C3)cc1` [Compound C389], the CC50 at 3 days (in vitro) was over 50 µM and the EC50 [1] was over 10 µM.

In the case of `CNC(=O)c1ccc(-n2c(N[C@@H](C)C(C)C)nc3c(c2=O)C[C@@H](C)N(C(=O)c2ccc(Cl)c(Cl)c2)C3)cc1` [Compound C390], the CC50 at 3 days (in vitro) is reported as 26.5 µM and the EC50 [1] is reported as 0.08 µM.

For `CNC(=O)c1cc(C)c(-n2c(NC(C)C)nc3c(c2=O)C[C@@H](C)N(C(=O)c2ccc(Cl)c(Cl)c2)C3)c(C)c1` [Compound C391], the CC50 at 3 days (in vitro) was over 50 µM and the EC50 [1] was 0.18 µM.

`Cc1noc2cc(-n3c(NC(C)C)nc4c(c3=O)C[C@@H](C)N(C(=O)c3ccc(Cl)c(Cl)c3)C4)ccc12` [Compound C395] showed a CC50 at 3 days (in vitro) of over 50 µM and an EC50 [1] of 0.15 µM.

For `CNC(=O)c1ccc(-n2c(NC(C)(C)C3CC3)nc3c(c2=O)C[C@@H](C)N(C(=O)c2ccc(Cl)c(Cl)c2)C3)cc1` [Compound C396], the CC50 at 3 days (in vitro) was 39.5 µM and the EC50 [1] was 0.08 µM.

Work on `CC[C@@H](C)Oc1nc2c(c(=O)n1-c1ccc(C(=O)NC)cc1)C[C@@H](C)N(C(=O)c1ccc(Cl)c(Cl)c1)C2` [Compound C397, 4-(R-2-(R-sec-butoxy)-7-(3,4-dichlorobenzoyl)-6-methyl-4-oxo-5,6,7,8-tetrahydropyrido[3,4-d]pyrimidin-3(4H)-yl)-N-methylbenzamide] yielded a CC50 at 3 days (in vitro) of 25.2 µM and an EC50 [1] of 0.05 µM.

With `CC[C@H](C)Oc1nc2c(c(=O)n1-c1ccc(C(=O)NC)cc1)C[C@@H](C)N(C(=O)c1ccc(Cl)c(Cl)c1)C2` [Compound C398] the CC50 at 3 days (in vitro) was 25.3 µM and the EC50 [1] was 0.1 µM.

`Cc1cc(-c2ncc[nH]2)ccc1-n1c(NC(C)C)nc2c(c1=O)C[C@@H](C)N(C(=O)c1ccc(Cl)c(Cl)c1)C2` [Compound C399] showed a CC50 at 3 days (in vitro) of 25.2 µM and an EC50 [1] of 0.24 µM.

For `CC(C)Nc1nc2c(c(=O)n1-c1ccc(S(=O)(=O)Nc3ccccn3)cc1)C[C@@H](C)N(C(=O)c1ccc(Cl)c(Cl)c1)C2` [Compound C400], the CC50 at 3 days (in vitro) was over 50 µM and the EC50 [1] was 1.15 µM.

With `CNC(=O)c1ccc(-n2c(OC(C)C)nc3c(c2=O)C[C@@H](C)N(C(=O)c2ccc(Cl)c(Cl)c2)C3)c(Cl)c1` [Compound C403a] the CC50 at 3 days (in vitro) was 36.7 µM and the EC50 [1] was 0.06 µM.

`CC(C)Nc1nc2c(c(=O)n1-c1ccc(-n3cccn3)cc1Cl)C[C@@H](C)N(C(=O)c1ccc(Cl)c(Cl)c1)C2` [Compound C404] showed a CC50 at 3 days (in vitro) of over 50 µM and an EC50 [1] of 0.13 µM.

`CNC(=O)c1ccc(-n2c(NC(C)(C)c3ccccc3)nc3c(c2=O)C[C@@H](C)N(C(=O)c2ccc(Cl)c(Cl)c2)C3)cc1` [Compound C407] gave a CC50 at 3 days (in vitro) of 18 µM and an EC50 [1] of 0.15 µM.

With `CNC(=O)c1ccc(-n2c(N3CC4CC3C4)nc3c(c2=O)C[C@@H](C)N(C(=O)c2ccc(Cl)c(Cl)c2)C3)cc1` [Compound C408] the CC50 at 3 days (in vitro) was over 50 µM and the EC50 [1] was 0.05 µM.

`CC(=O)Nc1ccc(-n2c(NC(C)C)nc3c(c2=O)C[C@@H](C)N(C(=O)c2ccc(Cl)c(Cl)c2)C3)cc1` [Compound C409] showed a CC50 at 3 days (in vitro) of over 50 µM and an EC50 [1] of 0.11 µM.

For `COc1ccc(C(C)Nc2nc3c(c(=O)n2-c2ccc(NC(C)=O)cc2)C[C@@H](C)N(C(=O)c2ccc(Cl)c(Cl)c2)C3)cc1` (some centres unmarked) [Compound C410], the CC50 at 3 days (in vitro) was 32.6 µM and the EC50 [1] was 0.13 µM.
